tested on: IL-2 production; test: Inhibition of IL-2 production (Jurkat/PHA/1% FBS, ELISA); format: cell-based; details: Homo sapiens, Jurkat, 20 h, Jurkat cells, PHA 2.5 μg/mL
Protocol: JurkaT-cells were placed in a 96 well plate (0.5 million cells per well in 1% FBS medium), and then a test compound of this invention was added at different concentrations. After 10 minutes, the cells were activated with PHA (final concentration 2.5 μg/mL) and incubated for 20 hours at 37° C. under 5% CO2. The final volume was 200 μL. Following incubation, the cells were centrifuged, and the supernatants collected and stored at −70° C. prior to assaying for IL-2 production. A commercial ELISA kit (IL-2 Eli-pair, Diaclone Research, Besancon, France) was used to detect production of IL-2, from which dose response curves were obtained. The IC50 value was calculated as the concentration at which 50% of maximum IL-2 production after stimulation was inhibited versus a non-stimulation control.

| IC50 [nM] | Compound |
| --- | --- |
| 10 | [2H]C([2H])([2H])n1nnc(N2CCC(C)=C(c3ccc(NC(=O)c4cccc(F)c4F)cc3)C2)n1 [Compound 1] |
| 11 | CC1=C(c2ccc(NC(=O)c3cccc(F)c3F)cc2)CN(c2nnn(CF)n2)CC1 [Compound 2] |
| 12 | CCC1=C(c2ccc(NC(=O)c3cccc(F)c3F)cc2)CN(c2nnn(CF)n2)CC1 [Compound 3] |
| 13 | CC1=C(c2ccc(NC(=O)c3cncc(F)c3C)cc2)CN(c2nnn(C)n2)CC1 [Compound 6] |
| 14 | CCC1=C(c2ccc(NC(=O)c3cccc(F)c3F)cc2)CN(c2nnn(C)n2)CC1 [Compound 7] |
| 26 | CC1=C(c2ccc(NC(=O)c3cccc(F)c3F)cc2)CN(c2nnn(C(F)F)n2)CC1 [Compound 21] |
| 33 | CCC1=C(c2ccc(NC(=O)c3cccc(F)c3F)cc2)CN(c2nnn(CC)n2)CC1 [Compound 24] |
| 39 | Cn1nnc(N2CCC(Cl)=C(c3ccc(NC(=O)c4ccncc4F)cc3)C2)n1 [Compound 28] |
| 47 | CCn1nnc(N2CCC(C)=C(c3ccc(NC(=O)c4cccc(F)c4F)cc3)C2)n1 [Compound 34] |
| 56 | Cn1nnc(N2CCC(Cl)=C(c3ccc(NC(=O)c4ccncc4Cl)cc3)C2)n1 [Compound 43] |
| 56 | CC1=C(c2ccc(NC(=O)c3c(F)cccc3F)cc2)CN(c2nnn(C(C)C)n2)CC1 [Compound 44] |
| 77 | CCCn1nnc(N2CCC(C)=C(c3ccc(NC(=O)c4cccc(F)c4F)cc3)C2)n1 [Compound 52] |
| 85 | CC1=C(c2ccc(NC(=O)c3cc(F)ccc3Cl)cc2)CN(c2nnn(C)n2)CC1 [Compound 53] |
| 96 | CCn1nnc(N2CCC(C)=C(c3ccc(NC(=O)c4cnccc4C)cc3)C2)n1 [Compound 55] |
| 105 | CCc1c(F)cncc1C(=O)Nc1ccc(C2=C(C)CCN(c3nnn(CC)n3)C2)cc1 [Compound 59] |
| 114 | CC1=C(c2ccc(NC(=O)c3cccnc3C)cc2)CN(c2nnn(C)n2)CC1 [Compound 60] |
| 124 | CC1=C(c2ccc(NC(=O)c3cccc(Cl)c3Cl)cc2)CN(c2nnn(C)n2)CC1 [Compound 62] |
| 163 | COc1cccc(F)c1C(=O)Nc1ccc(C2=C(C)CCN(c3nnn(C)n3)C2)cc1 [Compound 68] |
| 219 | CC1=C(c2ccc(NC(=O)c3cnc(C)cc3C)cc2)CN(c2nnn(C)n2)CC1 [Compound 69] |
| 289 | CCn1nnc(N2CCC(C)=C(c3ccc(NC(=O)c4cc(C)ncc4C)cc3)C2)n1 [Compound 70] |
| 312 | CC1=C(c2ccc(NC(=O)c3cccc(F)c3F)cc2)CN(c2nnn(CC(C)C)n2)CC1 [Compound 71] |
| 698 | CCn1nnc(N2CCC(C)=C(c3ccc(NC(=O)c4cncnc4C)cc3)C2)n1 [Compound 74] |
| 1000 | COc1ccc(F)cc1C(=O)Nc1ccc(C2=C(C)CCN(c3nnn(C)n3)C2)cc1 [Compound 76] |

Second part, the compound before the results:

| Compound | IC50 [nM] |
| --- | --- |
| Cn1nnc(N2CCC(Cl)=C(c3ccc(NC(=O)c4c(F)cccc4F)nc3)C2)n1 [Compound 4] | 12 |
| CC1=C(c2cnc(NC(=O)c3c(F)cccc3Cl)cn2)CN(c2nnn(C)n2)CC1 [Compound 5] | 13 |
| CC1=C(c2ccc(NC(=O)c3c(F)cccc3F)nc2)CN(c2nnn(C)n2)CC1 [Compound 8] | 15 |
| CC1=C(c2ccc(NC(=O)c3c(F)cccc3Cl)nc2)CN(c2nnn(C)n2)CC1 [Compound 13] | 17 |
| CC1=C(c2cnc(NC(=O)c3c(F)cccc3F)cn2)CN(c2nnn(C)n2)CC1 [Compound 32] | 46 |
| CC(C)C1=C(c2cnc(NC(=O)c3c(F)cccc3F)cn2)CN(c2nnn(C)n2)CC1 [Compound 35] | 49 |
| CC1=C(c2ccc(NC(=O)c3ccccc3F)nc2)CN(c2nnn(C)n2)CC1 [Compound 42] | 55 |
| COc1cc(C)c(C(=O)Nc2ccc(C3=C(C)CCN(c4nnn(C)n4)C3)cc2)cn1 [Compound 48] | 62 |
| CCC1=C(c2cnc(NC(=O)c3ccc(F)cc3F)cn2)CN(c2nnn(C)n2)CC1 [Compound 49] | 67 |
| CC1=C(c2cnc(C(=O)Nc3c(F)cccc3F)cn2)CN(c2nnn(C)n2)CC1 [Compound 50] | 74 |
| CC1=C(c2ccc(NC(=O)c3ccccc3Cl)nc2)CN(c2nnn(C)n2)CC1 [Compound 51] | 75 |
| CC1=C(c2ccc(NC(=O)c3c(Cl)cncc3Cl)cc2)CN(c2nnn(C)n2)CC1 [Compound 57] | 100 |
| CC1=C(c2cnc(NC(=O)c3ccc(F)cc3F)cn2)CN(c2nnn(C)n2)CC1 [Compound 58] | 104 |
| CC1=C(c2ccc(NC(=O)c3ncncc3C)cc2)CN(c2nnn(C)n2)CC1 [Compound 63] | 124 |
| CC(C)C1=C(c2ccc(NC(=O)c3ccc(F)cc3F)nc2)CN(c2nnn(C)n2)CC1 [Compound 64] | 126 |
| CC1=C(c2ccc(C(=O)Nc3c(F)cccc3F)cn2)CN(c2nnn(C)n2)CC1 [Compound 65] | 127 |
| CC1=C(c2cnc(NC(=O)c3cncc(F)c3C)cn2)CN(c2nnn(C)n2)CC1 [Compound 66] | 147 |
| Cc1ccncc1C(=O)Nc1ccc(C2=C(Cl)CCN(c3nnn(C)n3)C2)cn1 [Compound 67] | 150 |
| CC1=C(c2cnc(NC(=O)c3cnccc3C)cn2)CN(c2nnn(C)n2)CC1 [Compound 72] | 335 |
| CC1=C(c2cnc(NC(=O)c3ccncc3Cl)cn2)CN(c2nnn(C)n2)CC1 [Compound 73] | 423 |
| CC1=C(c2cnc(NC(=O)c3cc(F)cc(F)c3)cn2)CN(c2nnn(C)n2)CC1 [Compound 75] | 803 |

same assay, conditions: Jurkat cells, PHA 2.5 μg/mL, 20 hours

| IC50 [nM] | Compound |
| --- | --- |
| 22 | CC1=C(c2ccc(NC(=O)c3cccc(F)c3F)cc2)CN(c2nnn(C)n2)CC1 [Compound 19] |

From patent US20130289071A1, “TETRAZOLYL-TETRAHYDROPYRIDINE COMPOUNDS FOR INFLAMMATION AND IMMUNE-RELATED USES” (Synta Pharmaceuticals Corp., priority 2010, published 2013)
